Target: human JAK1 (a.a. 837-1142)
Assay: In vitro JAK kinase assay (HTRF, phosphorylation of a biotinylated peptide), JAK1
Format: biochemical
Conditions: measured at 1 mM ATP; JAK2 IC50 / JAK1 IC50
How it was run: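 N-terminally His-tagged catalytic domains, baculovirus-expressed in insect cells and purified, were used as enzyme. Reactions ran 1 hr at room temperature and were stopped with a mix of 45 mM EDTA, 300 nM SA-APC and 6 nM Eu-Py20. The HTRF signal was read after 40 min of antibody binding.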

SMILES | IC50 Ratio JAK2/JAK1
COc1cccc(NC(=O)N2CCC(N3CC(CC#N)(n4cc(-c5ncnc6[nH]ccc56)cn4)C3)CC2)c1 [Example 181, 4-{3-(cyanomethyl)-3-[4-(7H-pyrrolo[2,3-d]pyrimidin-4-yl)-1H-pyrazol-1-yl]azetidin-1-yl}-N-(3-methoxyphenyl)piperidine-1-carboxamide] | 4.9
N#CCC1(n2cc(-c3ncnc4[nH]ccc34)cn2)CN(C2CCN(C(=O)c3ccccc3F)CC2)C1 [Example 67, {1-[1-(2-fluorobenzoyl)piperidin-4-yl]-3-[4-(7H-pyrrolo[2,3-d]pyrimidin-4-yl)-1H-pyrazol-1-yl]azetidin-3-yl}acetonitrile] | 4.7
N#CCC1(n2cc(-c3ncnc4[nH]ccc34)cn2)CN(C2CC3CCC(C2)N3C(=O)c2ccc(F)c(F)c2)C1 (stereo not drawn) [Example 139, {1-[8-(3,4-difluorobenzoyl)-8-azabicyclo[3.2.1]oct-3-yl]-3-[4-(7H-pyrrolo[2,3-d]pyrimidin-4-yl)-1H-pyrazol-1-yl]azetidin-3-yl}acetonitrile] | 4.4
Cn1c(NC(=O)N2CCC(N3CC(CC#N)(n4cc(-c5ncnc6[nH]ccc56)cn4)C3)CC2)nc2ccccc21 [Example 194, 4-{3-(cyanomethyl)-3-[4-(7H-pyrrolo[2,3-d]pyrimidin-4-yl)-1H-pyrazol-1-yl]azetidin-1-yl}-N-(1-methyl-1H-benzimidazol-2-yl)piperidine-1-carboxamide] | 2.2
CC1CC(N2CC(CC#N)(n3cc(-c4ncnc5[nH]ccc45)cn3)C2)CCN1C(=O)C1CCC(F)(F)CC1 (stereo not drawn) [Example 151, {1-{1-[(4,4-difluorocyclohexyl)carbonyl]-2-methylpiperidin-4-yl}-3-[4-(7H-pyrrolo[2,3-d]pyrimidin-4-yl)-1H-pyrazol-1-yl]azetidin-3-yl}acetonitrile] | 5.8
N#CCC1(n2cc(-c3ncnc4[nH]ccc34)cn2)CN(C2CCN(C(=O)c3csc4ccccc34)CC2)C1 [Example 96, {1-[1-(1-benzothien-3-ylcarbonyl)piperidin-4-yl]-3-[4-(7H-pyrrolo[2,3-d]pyrimidin-4-yl)-1H-pyrazol-1-yl]azetidin-3-yl} acetonitrile] | 0.5
N#CCC1(n2cc(-c3ncnc4[nH]ccc34)cn2)CN(C2CCN(C(=O)Nc3ncc(F)cc3F)CC2)C1 [Example 203, 4-{3-(cyanomethyl)-3-[4-(7H-pyrrolo[2,3-d]pyrimidin-4-yl)-1H-pyrazol-1-yl]azetidin-1-yl}-N-(3,5-difluoropyridin-2-yl)piperidine-1-carboxamide] | 8.6
N#CCC1(n2cc(-c3ncnc4[nH]ccc34)cn2)CN(C2CCN(C(=O)c3ccc(F)cc3F)CC2)C1 [Example 42, {1-[1-(2,4-difluorobenzoyl)piperidin-4-yl]-3-[4-(7H-pyrrolo[2,3-d]pyrimidin-4-yl)-1H-pyrazol-1-yl]azetidin-3-yl}acetonitrile] | 6.7
N#CCC1(n2cc(-c3c(F)cnc4[nH]ccc34)cn2)CN(C2CCN(C(=O)c3cnc(C(F)(F)F)cn3)CC2)C1 [Example 354, [3-[4-(5-Fluoro-1H-pyrrolo[2,3-b]pyridin-4-yl)-1H-pyrazol-1-yl]-1-(1-{[5-(trifluoromethyl)pyrazin-2-yl]carbonyl}piperidin-4-yl)azetidin-3-yl]acetonitrile] | 2.1
N#CCC1(n2cc(-c3ncnc4[nH]ccc34)cn2)CN(C2CCN(C(=O)c3cc(C(F)(F)F)ncc3Cl)CC2)C1 [Example 342, {1-{1-[5-Chloro-2-(trifluoromethyl)isonicotinoyl]piperidin-4-yl}-3-[4-(7H-pyrrolo[2,3-d]pyrimidin-4-yl)-1H-pyrazol-1-yl]azetidin-3-yl}acetonitrile] | 5.7
COC(=O)c1cc(F)ccc1NC(=O)N1CCC(N2CC(CC#N)(n3cc(-c4ncnc5[nH]ccc45)cn3)C2)CC1 [Example 207, methyl 2-{[(4-{3-(cyanomethyl)-3-[4-(7H-pyrrolo[2,3-d]pyrimidin-4-yl)-1H-pyrazol-1-yl]azetidin-1-yl}piperidin-1-yl)carbonyl]amino}-5-fluorobenzoate] | 2.5
N#CCC1(n2cc(-c3ncnc4[nH]ccc34)cn2)CN(C2CC3CCC(C2)N3C(=O)c2ccc(Cl)c(F)c2)C1 (stereo not drawn) [Example 141, {1-[8-(4-chloro-3-fluorobenzoyl)-8-azabicyclo[3.2.1]oct-3-yl]-3-[4-(7H-pyrrolo[2,3-d]pyrimidin-4-yl)-1H-pyrazol-1-yl]azetidin-3-yl}acetonitrile] | 6.2
N#CCC1(n2cc(-c3ncnc4[nH]ccc34)cn2)CN(C2CCN(Cc3ccnc(C(F)(F)F)c3F)CC2)C1 [Example 231, {1-(1-{[3-fluoro-2-(trifluoromethyl)pyridin-4-yl]methyl}piperidin-4-yl)-3-[4-(7H-pyrrolo[2,3-d]pyrimidin-4-yl)-1H-pyrazol-1-yl]azetidin-3-yl}acetonitrile] | 5.1
N#CCC1(n2ccc(-c3ncnc4[nH]ccc34)c2)CN(C2CCN(C(=O)Nc3ccccc3C#N)CC2)C1 [Example 287, 4-{3-(cyanomethyl)-3-[3-(7H-pyrrolo[2,3-d]pyrimidin-4-yl)-1H-pyrrol-1-yl]azetidin-1-yl}-N-(2-cyanophenyl)piperidine-1-carboxamide] | 6.7

Results, then the compound that gave them:

IC50 Ratio JAK2/JAK1 | SMILES
3.2 | N#CCC1(n2cc(-c3ncnc4[nH]ccc34)cn2)CN(C2CCN(C(=O)c3ccccc3)CC2)C1 [Example 9, {1-(1-benzoylpiperidin-4-yl)-3-[4-(7H-pyrrolo[2,3-d]pyrimidin-4-yl)-1H-pyrazol-1-yl]azetidin-3-yl}acetonitrile]
10.0 | N#CCC1(n2cc(-c3ccnc4[nH]ccc34)cn2)CN(C2CCN(C(=O)c3ccc(O)cc3F)CC2)C1 [Example 297, {1-[1-(2-fluoro-4-hydroxybenzoyl)piperidin-4-yl]-3-[4-(1H-pyrrolo[2,3-b]pyridin-4-yl)-1H-pyrazol-1-yl]azetidin-3-yl}acetonitrile]
1.8 | CC1CC(N2CC(CC#N)(n3cc(-c4ncnc5[nH]ccc45)cn3)C2)CCN1Cc1c(F)cccc1Cl (single isomer, unassigned) [Example 244, {1-[1-(2-chloro-6-fluorobenzyl)-2-methylpiperidin-4-yl]-3-[4-(7H-pyrrolo[2,3-d]pyrimidin-4-yl)-1H-pyrazol-1-yl]azetidin-3-yl}acetonitrile]
9.0 | COc1ccccc1NC(=O)N1CCC(N2CC(CC#N)(n3ccc(-c4ncnc5[nH]ccc45)c3)C2)CC1 [Example 288, 4-{3-(cyanomethyl)-3-[3-(7H-pyrrolo[2,3-d]pyrimidin-4-yl)-1H-pyrrol-1-yl]azetidin-1-yl}-N-(2-methoxyphenyl)piperidine-1-carboxamide]
5.1 | COc1ccc(F)c(C(=O)N2CCC(N3CC(CC#N)(n4cc(-c5ncnc6[nH]ccc56)cn4)C3)CC2)c1 [Example 27, {1-[1-(2-fluoro-5-methoxybenzoyl)piperidin-4-yl]-3-[4-(7H-pyrrolo[2,3-d]pyrimidin-4-yl)-1H-pyrazol-1-yl]azetidin-3-yl}acetonitrile]
3.1 | N#CCC1(n2ccc(-c3ncnc4[nH]ccc34)c2)CN(C2CCN(C(=O)c3cccc(C(F)(F)F)c3)CC2)C1 [Example 268, (3-[3-(7H-pyrrolo[2,3-d]pyrimidin-4-yl)-1H-pyrrol-1-yl]-1-{1-[3-(trifluoromethyl)benzoyl]piperidin-4-yl}azetidin-3-yl)acetonitrile]
4.1 | N#CCC1(n2cc(-c3c(F)cnc4[nH]ccc34)cn2)CN(C2CCN(C(=O)C3CCC(F)(F)CC3)CC2)C1 [Example 327, {1-{1-[(4,4-difluorocyclohexyl)carbonyl]piperidin-4-yl}-3-[4-(5-fluoro-1H-pyrrolo[2,3-b]pyridine-4-yl)-1H-pyrazol-1-yl]azetidin-3-yl}acetonitrile]
2.6 | N#CCC1(n2cc(-c3ncnc4[nH]ccc34)cn2)CN(C2CCN(C(=O)c3ccc4ncccc4c3)CC2)C1 [Example 89, {3-[4-(7H-pyrrolo[2,3-d]pyrimidin-4-yl)-1H-pyrazol-1-yl]-1-[1-(quinolin-6-ylcarbonyl)piperidin-4-yl]azetidin-3-yl}acetonitrile]
3.0 | N#CCC1(n2cc(-c3c(F)cnc4[nH]ccc34)cn2)CN(C2CCN(C(=O)c3c(F)cncc3F)CC2)C1 [Example 321, {1-[1-(3,5-difluoroisonicotinoyl)piperidin-4-yl]-3-[4-(5-fluoro-1H-pyrrolo[2,3-b]pyridin-4-yl)-1H-pyrazol-1-yl]azetidin-3-yl}acetonitrile]
1.8 | CN(C)c1c(F)c(F)c(C(=O)N2CCC(N3CC(CC#N)(n4cc(-c5ncnc6[nH]ccc56)cn4)C3)CC2)c(F)c1F [Example 60, {1-{1-[4-(dimethylamino)-2,3,5,6-tetrafluorobenzoyl]piperidin-4-yl}-3-[4-(7H-pyrrolo[2,3-d]pyrimidin-4-yl)-1H-pyrazol-1-yl]azetidin-3-yl}acetonitrile]
9.0 | N#CCC1(n2ccc(-c3ncnc4[nH]ccc34)c2)CN(C2CCN(C(=O)c3cc(F)cc(C(F)(F)F)c3)CC2)C1 [Example 274, {1-{1-[3-fluoro-5-(trifluoromethyl)benzoyl]piperidin-4-yl}-3-[3-(7H-pyrrolo[2,3-d]pyrimidin-4-yl)-1H-pyrrol-1-yl]azetidin-3-yl}acetonitrile]
5.7 | N#CCC1(n2cc(-c3ncnc4[nH]ccc34)cn2)CN(C2CCN(C(=O)Nc3cc(F)cc(F)c3F)CC2)C1 [Example 173, 4-{3-(cyanomethyl)-3-[4-(7H-pyrrolo[2,3-d]pyrimidin-4-yl)-1H-pyrazol-1-yl]azetidin-1-yl}-N-(2,3,5-trifluorophenyl)piperidine-1-carboxamide]
3.8 | CS(=O)(=O)N1CCC(N2CC(CC#N)(n3cc(-c4ccnc5[nH]ccc45)cn3)C2)CC1 [Example 351, {1-[1-(Methylsulfonyl)piperidin-4-yl]-3-[4-(1H-pyrrolo[2,3-b]pyridin-4-yl)-1H-pyrazol-1-yl]azetidin-3-yl}acetonitrile]
